Data from the NIST ThermoML archive (doi:10.1016/j.jct.2014.05.020).

Test: excess molar enthalpy (molar enthalpy of mixing); xn = mol fraction of the nth substance listed
Details: Liquid, Flow calorimetry

C1CCCCC1 [cyclohexane] + c1ccccc1
excess molar enthalpy [kcal/mol]
Details | 298.2 K | 348.2 K | 423.2 K
100 kPa, x2 = 0.1191 | 0.0766 | – | –
100 kPa, x2 = 0.2332 | 0.132 | – | –
100 kPa, x2 = 0.2885 | 0.152 | – | –
100 kPa, x2 = 0.3426 | 0.167 | – | –
100 kPa, x2 = 0.3957 | 0.179 | – | –
100 kPa, x2 = 0.4478 | 0.186 | – | –
100 kPa, x2 = 0.4988 | 0.189 | – | –
100 kPa, x2 = 0.5488 | 0.188 | – | –
100 kPa, x2 = 0.5978 | 0.184 | – | –
100 kPa, x2 = 0.6459 | 0.176 | – | –
100 kPa, x2 = 0.6931 | 0.165 | – | –
100 kPa, x2 = 0.7394 | 0.15 | – | –
100 kPa, x2 = 0.7849 | 0.133 | – | –
100 kPa, x2 = 0.8295 | 0.112 | – | –
100 kPa, x2 = 0.9163 | 0.063 | – | –
5000 kPa, x2 = 0.1189 | 0.076 | 0.0637 | 0.0511
5000 kPa, x2 = 0.1765 | 0.106 | – | 0.072
5000 kPa, x2 = 0.233 | 0.132 | 0.11 | 0.0886
5000 kPa, x2 = 0.2882 | 0.152 | – | –
5000 kPa, x2 = 0.3424 | 0.167 | 0.141 | 0.113
5000 kPa, x2 = 0.3955 | 0.178 | – | –
5000 kPa, x2 = 0.4475 | 0.184 | 0.156 | 0.126
5000 kPa, x2 = 0.4985 | 0.188 | – | –
5000 kPa, x2 = 0.5485 | 0.187 | 0.159 | 0.128
5000 kPa, x2 = 0.5976 | 0.182 | – | –
5000 kPa, x2 = 0.6457 | 0.174 | 0.148 | 0.12
5000 kPa, x2 = 0.6929 | 0.166 | – | –
5000 kPa, x2 = 0.7392 | 0.151 | 0.126 | 0.103
5000 kPa, x2 = 0.7847 | 0.133 | – | –
5000 kPa, x2 = 0.8293 | 0.113 | 0.0938 | 0.0766
5000 kPa, x2 = 0.8732 | 0.0885 | – | 0.0603
5000 kPa, x2 = 0.9162 | 0.0614 | 0.0514 | 0.0425
5000 kPa, x2 = 0.9585 | – | 0.0264 | 0.0221
15000 kPa, x2 = 0.1188 | 0.0714 | 0.0601 | 0.0502
15000 kPa, x2 = 0.1763 | – | – | 0.0712
15000 kPa, x2 = 0.2327 | 0.129 | 0.109 | 0.0873
15000 kPa, x2 = 0.2879 | 0.15 | – | –
15000 kPa, x2 = 0.3421 | 0.166 | 0.14 | 0.111
15000 kPa, x2 = 0.3951 | 0.178 | – | –
15000 kPa, x2 = 0.4471 | 0.185 | 0.156 | 0.124
15000 kPa, x2 = 0.4981 | 0.188 | – | –
15000 kPa, x2 = 0.5482 | 0.188 | 0.158 | 0.125
15000 kPa, x2 = 0.5972 | 0.184 | – | –
15000 kPa, x2 = 0.6454 | 0.175 | 0.148 | 0.117
15000 kPa, x2 = 0.6926 | 0.164 | – | –
15000 kPa, x2 = 0.7389 | 0.149 | 0.127 | 0.1
15000 kPa, x2 = 0.7845 | 0.131 | – | –
15000 kPa, x2 = 0.8291 | 0.11 | 0.0941 | 0.0743
15000 kPa, x2 = 0.873 | – | – | 0.0577
15000 kPa, x2 = 0.9161 | 0.0587 | 0.0511 | 0.0403
15000 kPa, x2 = 0.9584 | – | 0.0259 | 0.0203
25000 kPa, x2 = 0.1187 | 0.072 | 0.0642 | 0.0506
25000 kPa, x2 = 0.1762 | – | 0.0901 | 0.0707
25000 kPa, x2 = 0.2325 | 0.129 | 0.112 | 0.0873
25000 kPa, x2 = 0.3418 | 0.167 | 0.143 | 0.112
25000 kPa, x2 = 0.4469 | 0.185 | 0.158 | 0.124
25000 kPa, x2 = 0.5479 | 0.187 | 0.16 | 0.125
25000 kPa, x2 = 0.6451 | 0.175 | 0.149 | 0.117
25000 kPa, x2 = 0.7388 | 0.149 | 0.127 | 0.0996
25000 kPa, x2 = 0.7843 | 0.132 | – | –
25000 kPa, x2 = 0.829 | 0.111 | 0.0933 | –
25000 kPa, x2 = 0.8729 | – | 0.0728 | –
25000 kPa, x2 = 0.916 | 0.0593 | 0.0502 | –
25000 kPa, x2 = 0.9584 | – | 0.0242 | –
